Data: US4618687A, “Cyclopentenone compound and process for production thereof” (Kyowa Hakko Kogyo Co., Ltd., priority 1984, dated 1986)
Values after ≈ are worked out from the molar mass of the structure shown.

Tested on: HeLa S3 cells
Test: Growth inhibitory effect on HeLa cells
Type: cell-based
Settings: 96 h; for Cell count, average ± standard deviation: three runs, control 732 ± 24
Experimental: Growth inhibitory effect on HeLa cells
Cultured HeLa S3 cells are suspended in an MEM medium (containing 10% bovine fetus serum and 6 mg/100 ml kanamycin) at a concentration of 5×10^4 cells/ml, 1 ml each of the cell suspension is pipetted in 24-hole multi-dishes, and the cells are cultured in a carbon dioxide cultivator with 5% CO2 at 37° C. for 24 hours. Then, 0.1 ml each of drug solutions prepared at predetermined concentrations are added to each dish. Then, the cells are further cultured in the carbon dioxide cultivator for 96 hours. After the culturing, the culture liquor is removed from the dishes, and then 1 ml of PBS [physiological saline solution containing a phosphate buffer (pH 7.2)]is added to the dishes to gently wash the cell surfaces. Then, PBS is removed from the dishes. Then, 1 ml of PBS containing 0.05% trypsin and 0.02% EDTA is added to each dish. The dishes are left standing at room temperature for about 15 minutes. Adhered cells are peeled off, and 0.5 ml of the cell suspension is added to 10 ml of an isotonic solution. Cells are counted by a microcell counter to determine inhibition percent (%) against cell propagation of groups treated with the drug on the basis of the cell count of the control group. Linear expression showing a relationship between the concentration and the inhibition percent are obtained from the inhibition percent of the drug against the cell propagation at the respective concentration according to the least-squares method, and then the drug concentrations IC50 showing a 50% inhibition against the cell propagation are obtained from the linear expression.

For `O=C1C=CC2COC(O)CC12` (stereo not drawn) [compound (I), 4-hydroxy-3-oxabicyclo [4.3.0]nona-8-en-7-on], the “Cell count, average ± standard deviation” value (1 μg/ml) was 697 ± 58 × 10^3 cells/ml, the “Cell count, average ± standard deviation” value (3 μg/ml) was 784 ± 42 × 10^3 cells/ml and the “Cell count, average ± standard deviation” value (5 μg/ml) was 454 ± 21 × 10^3 cells/ml. The “Cell count, average ± standard deviation” value (10 μg/ml) was 7.1 ± 2.1 × 10^3 cells/ml, the inhibition at 1 µg/mL (Homo sapiens, HeLa S3, 1 μg/ml, read-out: Inhibition percent against cell propagation) was 4.8% and the inhibition at 3 µg/mL (Homo sapiens, HeLa S3, 3 μg/ml, read-out: Inhibition percent against cell propagation) was -7%. For the same compound, the inhibition at 5 µg/mL (Homo sapiens, HeLa S3, 5 μg/ml, read-out: Inhibition percent against cell propagation) was 38%, the inhibition at 10 µg/mL (Homo sapiens, HeLa S3, 10 μg/ml, read-out: Inhibition percent against cell propagation) was 99% and the IC50 (Homo sapiens, HeLa S3, 50% inhibition against cell propagation, linear least-squares) was 5.73 µg/mL (≈ 37.2 µM).
